{"source": "paper PMC6815936", "about": "“A Pan-Cyclophilin Inhibitor, CRV431, Decreases Fibrosis and Tumor Development in Chronic Liver Disease Models” (The Journal of Pharmacology and Experimental Therapeutics, 2019)", "system": "CCl4-induced liver fibrosis in C57BL/6 mice", "assay": "Carbon tetrachloride mouse model of liver fibrosis", "format": "in vivo", "details": "OCA 10 mg/kg per day; combination 50 and 10 mg/kg per day, oral, 6 weeks", "description": "Carbon tetrachloride (CCl4)–induced liver fibrosis was conducted in C57BL/6J male mice starting at 7 weeks of age. Mice were injected intraperitoneally twice per week with 0.5–0.75 ml/kg CCL4 (289116; Sigma-Aldrich) and corn oil (0.05 ml total dose per mouse) for 6 weeks. CRV431, obeticholic acid (OCA, HY-12222; MedChemExpress), and vehicle were administered by daily oral gavage for the entire duration of the study. CRV431 and OCA were dissolved in a self-microemulsifying drug vehicle ([Trepanier et al., 2018]), and then diluted with PBS. CRV431 was administered at 50 mg/kg per day, and OCA was administered at 10 mg/kg per day.\nBlood and livers were collected at the end of the NASH and CCl4 studies. In some studies, serum or plasma was isolated from freshly-collected blood, whereas in other studies blood was frozen for later analysis of CRV431 concentration. Livers were immersion-fixed in zinc-formalin and paraffin-embedded for histologic processing. Liver sections were stained with hematoxylin and eosin for assessment of inflammation, ballooning, and steatosis, and with sirius red for assessment of collagen I and III (fibrosis). Sirius red staining was quantified by blinded analysis in one section per liver using ImageJ software. […]"}
{"compound": "CC[C@H]1[C@@H](O)[C@@H]2[C@H](CC[C@]3(C)[C@@H]([C@H](C)CCC(=O)O)CC[C@@H]23)[C@@]2(C)CC[C@@H](O)C[C@@H]12", "note": "[OCA, obeticholic acid, reference compound]", "values": [{"measurement": "effect on liver fibrosis, sirius red staining (in words)", "result": "no statistically significant effect"}]}
